US20240132910A1, “USE OF HISTIDINE RICH PEPTIDES AS A TRANSFECTION REAGENT FOR rAAV AND rBV PRODUCTION” (BioMarin Pharmaceutical Inc., priority 2021, published 2024)
Read-outs that look alike come from different tables or passages of the source. Ends that are not written are not given here.

Legend:
[1] = Stability of DNA:transfection reagent complexes before transfection
Experimental: The LAH4 peptide was allowed to incubate with the plasmids for more than 1 hour for large scale (more than or equal 100 L) transient transfections since this incubation time allowed for improved stability of the transfection complexes such that the processes were robust and reproducible. It was discovered that LAH4: DNA complexes are stable at least for 1 hour. In a follow up study, the stability of LAH:DNA complexes are evaluated for up to 1 week when stored at 2-8° C. and/or room temperature and with or without exposure to ambient light.
Transfection: LAH4 solution from the same batch is kept at −20° C. in single use aliquots. LAH4 is thawed at RT and mixed with plasmid DNA containing GFP reporter gene. DNA:LAH4 complexes are kept in closed caps tubes to prevent evaporation at either room temperature or 2-8° C. for indicated periods of time before transfection.
Stability of LAH4:DNA complexes: Biophysical characterization of LAH4:DNA complexes is performed. Methods can include size and charge measurements.

[2] = Viability of transfected HEK293 cells (Trypan Blue exclusion), AAV9 production in Ambr15; format: cell-based; conditions: human, read-out: average cell viability
Experimental: The cell viabilities were quantified using an automated cell counter and Trypan Blue exclusion.
In Ambr15 minibioreactors (15 mL volume), AAV9 capsids were produced in HEK293 cells transfected with plasmids for producing AAV9 capsids and providing an AAV genome vector containing an GFP expression cassette using different complexation volumes of the LAH4 peptide. Prior to transfection, the plasmids were mixed with a concentration of the LAH4 peptide and incubated for 10 minutes and 60 minutes. The LAH4/plasmids mixtures had volumes that were 1% and 10% of the HEK293 cell culture volume. The titers were determined using ddPCR and GFP intensity was measured by attune flow cytometer.

[3] = in vitro; format: in vitro ADME; conditions: human, cells or culture medium
Experimental: Clearance of the ancillary materials such as transfection reagent during bioprocessing is emphasized. We hypothesized that LAH4 is largely degraded by cellular proteases after transfection process is completed. […] Different concentrations of the LAH4 peptide were added to cell culture volumes of 3 L and 100 L (i.e., bioreactors). At 4 hours post transfection, the LAH4 peptide concentration was reduced by ˜45% to ˜85% relative to initial LAH4 peptide concentration. At 24 hours post transfection, the LAH4 peptide concentration was reduced by ˜83% to ˜97% relative to initial LAH4 peptide concentration. At 48 hours post transfection, the LAH4 peptide concentration was reduced by ˜93% to ˜99% relative to initial LAH4 peptide concentration. At 72 hours post transfection, the LAH4 peptide concentration was reduced by ˜96% to ˜99% relative to initial LAH4 concentration.
Cell culturing: Suspension HEK293 cells are cultured according to the manufacturer's instructions in the provided cell culture media. For small scale transfection study HEK293 cells are seeded in the range of at a predetermined cell density in 125 ml Erlenmeyer shake flasks on the day of transfection.
LAH4 detection in cells: Samples are collected at different time points after transfection and analyzed using LC/MS assay.

[4] = tested on: Sf9 cells; experiment: rBV titers from bacmid-transfected Sf9 cells; format: cell-based, Spodoptera frugiperda; conditions: FIG. 18
Experimental: The titer of the rBV can be determined using a foci/viral plaque assay. This assay first includes the step of infecting cells with serial dilutions of a solution containing rBV. After infection occurs for a predetermined time, the rBV is removed from the cultures and the cells are incubated for a pre-determined time. After the pre-determined time has elapsed, a plaquing media (e.g., containing agarose) is added to the cultures and allowed to harden. The cells are allowed to further incubate for a pre-determined time and the number of plaques are counted after the pre-determined time. The titer is calculated using the following formula: Titer (plaque forming units/mL)=number of plaques×dilution factor×(1/(mL of inoculum/well)
AAV5 capsids were also produced in Sf9 cells. To produce the AAV5 capsids, Sf9 cells were transfected with bacmids having nucleotide sequences for generating AAV5 capsids or providing an AAV genome vector using the control transfection reagent and different HRPs. […] In culture, the rBVs generated from the initial bacmid transfection subsequently infect other Sf9 cells that in turn generated more rBVs.

[5] = tested on: Sf9 cells; experiment: AAV5 capsids from Sf9 cells infected with the rBVs, ddPCR; format: cell-based, Spodoptera frugiperda; conditions: rBVs from transfected Sf9 cells, FIG. 19
Experimental: The different rBVs were collected and used to further infect naive Sf9 cells to generate AAV5 capsids, where the rBVs have nucleotide sequences for generating AAV5 capsids. The titers were determined using ddPCR. […] The AAV5 capsids produced using LAH4-L1-F4 had concentrations of the VP1 capsid protein and ratios of capsid to vector genomes that were the same as AAV5 capsids produced using the control transfection reagent.

polyethylenimine [PEI, reference compound]
stability when mixed with plasmids and incubated for extended periods of time [1]: does not remain stable

KKALLALALHHLAHLALHLALALKKA [LAH4]
viability ([2]; Ambr15, 1% complexation volume, FIG. 10D): > 75% | viability ([2]; Ambr15, 10% complexation volume, FIG. 10D): ~72.5% | viability ([2]; Ambr15, 10 minute complexation time, FIG. 10H): ~72.5% | viability ([2]; Ambr15, 60 minute complexation time, FIG. 10H): > 75% | stability of LAH4:DNA complexes [1]: ≥ 1 h | metabolised at 72 h [3]: > 95%

KKALLALALHHLAHLAHHLALALKKA (Synthetic LAH5 peptide)
rBV titers versus control reagent [4]: comparable

KKALLAHFFHLLALLALHFFHALKKA (Synthetic LAH4-L1-F4 peptide)
rBV titers versus control reagent [4]: comparable | AAV5 capsid titers versus control reagent [5]: comparable
